The text below walks through data of US20110065597A1, “SINGLE MOLECULE PROTEOMICS WITH DYNAMIC PROBES” (LI-COR, INC., priority 2009, published 2011).

Data set [1] is described as follows: Photostability of dye-labeled secondary antibody in fixed NIH3T3 cells (fluorescence intensity vs exposure number). As to conditions: FIG. 3B, compared with IRDye 680 and Alexa Fluor 680. The class given is physicochemical. The procedure: LI-COR IRDye 700DX is shown in FIG. 3A which has multiple charged groups. NIH3T3 cells were fixed and permeabilized, followed by incubation with rabbit anti-histone primary antibody and goat anti-rabbit secondary antibody labeled with IRDye 680, IRDye 700DX, or Alexa Fluor 680. Images were recorded in movies of 2-second exposures by a Roper Micromax CCD in a Zeiss Axiovert S100 microscope. The mean fluorescence intensity of the field is plotted against exposure number (FIG. 3B).

The target in another data set is neutravidin (Gallus gallus, UniProt P02701). As to conditions: at each individual immobilized biotin molecule, picomolar neutravidin in solution; cited from earlier work.
neutravidin, sequence (P02701 25-152): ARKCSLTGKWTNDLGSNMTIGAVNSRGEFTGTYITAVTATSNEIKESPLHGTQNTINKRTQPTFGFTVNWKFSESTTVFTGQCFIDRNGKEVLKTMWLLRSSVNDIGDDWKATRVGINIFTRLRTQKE

For `C[Si](C)(CCC[N+](CCCS(=O)(=O)[O-])(CCCS(=O)(=O)[O-])CCCS(=O)(=O)[O-])O[Si]1(O[Si](C)(C)CCC[N+](CCCS(=O)(=O)[O-])(CCCS(=O)(=O)[O-])CCCS(=O)(=O)[O-])n2c3c4ccccc4c2N=C2N=C(N=c4c5ccccc5c(n41)=NC1=NC(=N3)c3ccccc31)c1cccc(OCCCOC(=O)NCCCCCC(=O)ON3C(=O)CCC3=O)c12.[Na+].[Na+].[Na+].[Na+]` (centres unmarked) [IRDye, 700DX], the photostability result in data set [1] is “superior”. With `O=C(O)CCCC[C@@H]1SC[C@@H]2NC(=O)N[C@@H]21` [biotin], the diffusion-limited binding rate at neutravidin was 1.9e+08 M⁻¹ s⁻¹.
